The source made the active and inactive calls. The rule behind the calls is not given here.
Key:
[1] = tested on: MZL; test: Induction of apoptosis in human MZL cells assessed as increase in cleaved-PARP expression at 5 uM measured after 24 hrs in presence of bortezomib by Western blot analysis; type: functional, cell-based
[2] = target: Myc proto-oncogene protein (Homo sapiens) (UniProt P01106); test: Inhibition of c-Myc in human LY10 cells assessed as reduction in E2F1 expression at 3 uM incubated for 24 hrs in presence of bortezomib by Western blot analysis; type: cell-based
Sequence of Myc proto-oncogene protein (Homo sapiens) (P01106 whole entry): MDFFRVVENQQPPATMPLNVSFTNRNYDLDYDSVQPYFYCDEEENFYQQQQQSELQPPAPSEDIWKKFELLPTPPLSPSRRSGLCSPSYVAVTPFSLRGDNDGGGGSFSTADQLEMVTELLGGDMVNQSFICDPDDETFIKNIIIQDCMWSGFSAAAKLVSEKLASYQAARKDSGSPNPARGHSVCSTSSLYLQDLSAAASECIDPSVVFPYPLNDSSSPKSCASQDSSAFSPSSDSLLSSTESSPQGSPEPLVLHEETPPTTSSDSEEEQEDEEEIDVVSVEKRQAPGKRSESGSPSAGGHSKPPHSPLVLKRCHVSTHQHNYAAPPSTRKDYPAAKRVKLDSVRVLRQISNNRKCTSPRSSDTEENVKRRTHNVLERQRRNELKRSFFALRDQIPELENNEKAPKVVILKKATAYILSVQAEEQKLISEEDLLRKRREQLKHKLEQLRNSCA

[3] = target: Myc proto-oncogene protein (Homo sapiens) (UniProt P01106); test: Inhibition of c-Myc in human LY10 cells assessed as reduction in eIF4B expression at 3 uM incubated for 24 hrs in presence of bortezomib by Western blot analysis; type: cell-based
[4] = target: T1, mTORC1 (Homo sapiens) (UniProt P42345+Q8N122+Q9BVC4); test: Inhibition of mTORC1 in human LY7 cells assessed as reduction in c-Myc mRNA expression at 3 uM measured after 24 hrs in presence of bortezomib; type: cell-based
T1 sequence (Q8N122 whole entry, looked up, other chains not shown): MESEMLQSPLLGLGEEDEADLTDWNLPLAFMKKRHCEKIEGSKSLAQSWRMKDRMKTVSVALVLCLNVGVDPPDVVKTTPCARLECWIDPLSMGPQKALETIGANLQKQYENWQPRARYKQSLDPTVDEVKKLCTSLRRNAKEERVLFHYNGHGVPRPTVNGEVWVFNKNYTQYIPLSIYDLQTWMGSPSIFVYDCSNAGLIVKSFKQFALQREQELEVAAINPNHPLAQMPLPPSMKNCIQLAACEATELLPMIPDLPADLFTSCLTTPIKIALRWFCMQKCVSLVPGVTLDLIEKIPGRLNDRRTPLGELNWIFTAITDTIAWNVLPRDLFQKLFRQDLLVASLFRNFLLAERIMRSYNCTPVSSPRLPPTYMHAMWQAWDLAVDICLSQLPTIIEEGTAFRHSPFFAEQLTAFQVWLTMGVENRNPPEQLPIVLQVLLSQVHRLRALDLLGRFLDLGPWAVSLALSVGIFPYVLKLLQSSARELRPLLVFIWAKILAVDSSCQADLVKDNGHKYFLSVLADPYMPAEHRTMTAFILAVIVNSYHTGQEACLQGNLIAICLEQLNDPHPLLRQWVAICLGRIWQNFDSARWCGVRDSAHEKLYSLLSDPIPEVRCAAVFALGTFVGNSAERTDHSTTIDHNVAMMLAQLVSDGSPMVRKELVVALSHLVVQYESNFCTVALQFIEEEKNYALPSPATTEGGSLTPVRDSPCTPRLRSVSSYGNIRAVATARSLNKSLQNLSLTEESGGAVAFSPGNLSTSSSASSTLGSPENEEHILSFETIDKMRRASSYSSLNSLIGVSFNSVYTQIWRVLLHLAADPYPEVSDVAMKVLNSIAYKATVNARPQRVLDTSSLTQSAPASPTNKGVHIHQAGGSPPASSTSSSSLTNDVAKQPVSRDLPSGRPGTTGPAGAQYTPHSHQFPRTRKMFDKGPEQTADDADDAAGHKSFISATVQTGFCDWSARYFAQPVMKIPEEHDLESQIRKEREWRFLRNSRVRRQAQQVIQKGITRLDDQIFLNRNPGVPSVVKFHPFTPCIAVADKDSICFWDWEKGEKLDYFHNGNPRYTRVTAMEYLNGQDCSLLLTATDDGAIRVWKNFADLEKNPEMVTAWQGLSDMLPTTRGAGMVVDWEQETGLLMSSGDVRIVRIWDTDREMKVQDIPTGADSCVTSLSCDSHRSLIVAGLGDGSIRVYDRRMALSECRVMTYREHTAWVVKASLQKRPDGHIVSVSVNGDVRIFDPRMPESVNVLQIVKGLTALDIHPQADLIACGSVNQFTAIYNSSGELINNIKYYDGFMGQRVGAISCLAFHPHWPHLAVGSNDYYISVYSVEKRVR
T1 sequence (Q9BVC4 whole entry, looked up, other chains not shown): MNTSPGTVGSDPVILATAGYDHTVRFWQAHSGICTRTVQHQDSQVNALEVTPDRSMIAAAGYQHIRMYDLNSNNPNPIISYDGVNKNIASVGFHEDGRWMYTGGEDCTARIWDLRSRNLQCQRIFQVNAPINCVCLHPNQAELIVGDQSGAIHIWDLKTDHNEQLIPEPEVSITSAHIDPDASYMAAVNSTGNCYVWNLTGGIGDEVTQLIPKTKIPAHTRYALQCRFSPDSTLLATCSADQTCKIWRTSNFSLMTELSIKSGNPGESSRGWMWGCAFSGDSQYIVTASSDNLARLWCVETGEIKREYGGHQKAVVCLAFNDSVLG

[5] = target: T1, mTORC1 (Homo sapiens); test: Inhibition of mTORC1 in human SLL cells assessed as reduction in c-Myc expression at 5 uM measured after 24 hrs in presence of bortezomib by Western blot analysis; type: cell-based
[6] = target: T1, mTORC1 (Homo sapiens); test: Inhibition of mTORC1 in human CLL cells assessed as reduction in c-Myc expression at 5 uM measured after 24 hrs in presence of bortezomib by Western blot analysis; type: cell-based; conditions: CLL cell
[7] = tested on: OCI-Ly10; test: Induction of apoptosis in human LY10 cells assessed as increase in cleaved-PARP expression at 3 uM measured after 24 hrs in presence of bortezomib by Western blot analysis; type: functional, cell-based
[8] = target: T1, mTORC1 (Homo sapiens); test: Inhibition of mTORC1 in human LY7 cells assessed as reduction in 4E-BP1 phosphorylation at 3 uM measured after 24 hrs in presence of bortezomib by Western blot analysis; type: cell-based
[9] = target: T1, mTORC1 (Homo sapiens); test: Inhibition of mTORC1 in human CLL cells assessed as reduction in 4E-BP1 phosphorylation at 5 uM measured after 24 hrs in presence of bortezomib by Western blot analysis; type: cell-based; conditions: CLL cell
[10] = tested on: CLL cell; test: Induction of apoptosis in human CLL cells assessed as increase in cleaved-PARP expression at 5 uM measured after 24 hrs in presence of carfilzomib by Western blot analysis; type: functional, cell-based
[11] = target: T1, mTORC1 (Homo sapiens); test: Inhibition of mTORC1 in human SLL cells assessed as reduction in c-Myc expression at 5 uM measured after 24 hrs in presence of carfilzomib by Western blot analysis; type: cell-based
[12] = target: T2, Phosphatidylinositol 4,5-bisphosphate 3-kinase catalytic subunit delta isoform (Homo sapiens) (UniProt O00329); test: Inhibition of PI3Kdelta in human Jurkat cells assessed as reduction in AKT phosphorylation at S473 residue at 1 uM measured after 4 hrs relative to control; type: cell-based
T2 sequence (whole entry): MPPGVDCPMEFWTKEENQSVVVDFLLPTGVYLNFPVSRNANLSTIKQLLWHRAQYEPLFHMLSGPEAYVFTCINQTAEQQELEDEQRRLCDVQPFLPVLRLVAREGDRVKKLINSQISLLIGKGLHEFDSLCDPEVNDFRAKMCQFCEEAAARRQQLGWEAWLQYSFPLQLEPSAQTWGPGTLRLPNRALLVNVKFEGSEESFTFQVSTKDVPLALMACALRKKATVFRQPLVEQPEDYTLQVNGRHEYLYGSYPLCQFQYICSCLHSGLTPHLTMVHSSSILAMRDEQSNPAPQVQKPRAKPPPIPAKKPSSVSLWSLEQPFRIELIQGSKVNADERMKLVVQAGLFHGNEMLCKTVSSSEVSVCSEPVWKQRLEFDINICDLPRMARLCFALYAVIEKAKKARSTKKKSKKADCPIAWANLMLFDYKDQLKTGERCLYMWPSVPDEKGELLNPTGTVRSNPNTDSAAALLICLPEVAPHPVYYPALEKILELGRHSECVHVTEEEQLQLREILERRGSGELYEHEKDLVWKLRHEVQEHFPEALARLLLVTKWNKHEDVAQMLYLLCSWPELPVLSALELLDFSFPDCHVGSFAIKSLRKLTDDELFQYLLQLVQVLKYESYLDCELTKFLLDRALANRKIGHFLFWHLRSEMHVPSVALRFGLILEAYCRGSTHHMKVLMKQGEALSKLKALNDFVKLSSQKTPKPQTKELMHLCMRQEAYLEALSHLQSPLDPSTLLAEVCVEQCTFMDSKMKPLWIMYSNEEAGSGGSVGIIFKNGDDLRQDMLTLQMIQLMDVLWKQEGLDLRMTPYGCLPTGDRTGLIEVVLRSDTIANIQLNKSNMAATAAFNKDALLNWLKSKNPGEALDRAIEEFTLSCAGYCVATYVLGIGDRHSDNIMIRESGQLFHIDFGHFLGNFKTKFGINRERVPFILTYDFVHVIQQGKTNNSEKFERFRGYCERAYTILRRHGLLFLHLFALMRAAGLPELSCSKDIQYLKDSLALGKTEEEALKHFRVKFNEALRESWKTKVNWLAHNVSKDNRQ

[13] = tested on: LY7; test: Inhibition of PI3Kdelta/CK1epsilon in human LY7 cells assessed as reduction in c-Myc expression at 15 to 50 uM measured after 24 hrs by Western blot analysis; type: cell-based; conditions: dose 15-50 µM
[14] = target: T1, mTORC1 (Homo sapiens); test: Inhibition of mTORC1 in human CLL cells assessed as reduction in c-Myc expression at 5 uM measured after 24 hrs in presence of carfilzomib by Western blot analysis; type: cell-based; conditions: CLL cell
[15] = tested on: NCI-H929; test: Cytotoxicity against human NCI-H929 cells transduced with an empty vector assessed as reduction in cell viability at 5 uM incubated for 24 hrs in presence of carfilzomib by cell-titer glo assay; type: functional, cell-based
[16] = target: T2, Phosphatidylinositol 4,5-bisphosphate 3-kinase catalytic subunit delta isoform (Homo sapiens); test: Inhibition of PI3Kdelta in human HL-60 cells assessed as reduction in AKT phosphorylation at S473 residue measured after 4 hrs; type: cell-based; conditions: dose 10-10000 nM
[17] = target: T2, Phosphatidylinositol 4,5-bisphosphate 3-kinase catalytic subunit delta isoform (Homo sapiens); test: Inhibition of PI3Kdelta in human MOLT-4 cells assessed as reduction in AKT phosphorylation at S473 residue measured after 4 hrs; type: cell-based; conditions: dose 10-10000 nM
[18] = tested on: LY7; test: Inhibition of PI3Kdelta/CK1epsilon in human LY7 cells assessed as reduction in 4E-BP1 phosphorylation at 25 uM incubated for 24 hrs by Western blot analysis; type: cell-based
[19] = target: T1, mTORC1 (Homo sapiens); test: Inhibition of mTORC1 in human PF-382 cells assessed as reduction in c-Myc expression at 5 uM measured after 24 hrs in presence of carfilzomib by Western blot analysis; type: cell-based
[20] = tested on: LY7; test: Inhibition of PI3Kdelta/CK1epsilon in human LY7 cells assessed as reduction in c-Myc expression at 25 uM incubated for 24 hrs by Western blot analysis; type: cell-based
[21] = target: T2, Phosphatidylinositol 4,5-bisphosphate 3-kinase catalytic subunit delta isoform (Homo sapiens); test: Inhibition of PI3Kdelta in human MOLT-4 cells assessed as reduction in AKT phosphorylation at S473 residue at 1 uM measured after 4 hrs relative to control; type: cell-based
[22] = tested on: MOLT-4; test: Antitumor activity against human MOLT-4 cells xenografted in NOD/SCID mouse assessed as reduction in tumor volume at 150 mg/kg, po administered daily for 25 days measured at 2 to 3 times per week during compound dosing by caliper method; type: functional, organism-based; conditions: time 25.0 day
[23] = target: T1, mTORC1 (Homo sapiens); test: Inhibition of mTORC1 in human LY7 cells assessed as reduction in 4E-BP1 phosphorylation at 3 uM measured after 24 hrs in presence of carfilzomib by Western blot analysis; type: cell-based

CC[C@H](Nc1ncnc2[nH]cnc12)c1nc2cccc(F)c2c(=O)n1-c1ccccc1
Activity [1]: Active
inhibition [2]: inactive
inhibition [3]: inactive
inhibition [4]: inactive
inhibition [5]: inactive
inhibition [6]: inactive
Activity [7]: Active
inhibition [8]: inactive
inhibition [9]: inactive
Activity [10]: Active

CC(C)Oc1ccc(-c2nn([C@@H](C)c3oc4ccc(F)cc4c(=O)c3-c3cccc(F)c3)c3ncnc(N)c23)cc1F [UMBRALISIB]
inhibition [11]: Active
inhibition [12]: 43%
inhibition [13]: Active
inhibition [14]: Active
Activity [15]: Active
inhibition [16]: Dose-Dependent Effect
inhibition [17]: Dose-Dependent Effect
inhibition [18]: Active
inhibition [19]: Active
inhibition [20]: Active
inhibition [21]: 43%
Activity [22]: Active
inhibition [23]: Active
Activity [10]: Active

Source: ChEMBL document CHEMBL5715954, “Silencing c-Myc translation as a therapeutic strategy through targeting PI3Kδ and CK1ε in hematological malignancies” (Blood, 2017)
